Data: paper PMC12525867, “Aromaticity Tuning in Biaryl Monophosphines and Their Derivatives” (Molecules, 2025)
In brackets after ≈: the same amount, converted by molar mass.

Columns and labels:
[1] = tested on: E. coli ATCC 25922; assay: Antibacterial screening, broth microdilution (MIC/MBC); type: cell-based, Escherichia coli; conditions: Escherichia coli, ATCC25922; for MIC: E. coli ATCC 25922, MHB, 24 h, 35 °C, read-out: MIC
Method: (§1) The antimicrobial activities of a series of compounds 1–5 were tested through the utilization of seven reference species, encompassing both Gram-positive (Staphylococcus aureus ATCC 29213, Staphylococcus epidermidis ATCC 12228, Micrococcus luteus ATCC 10240) and Gram-negative (Escherichia coli ATCC 25922, Klebsiella pneumoniae ATCC 13883, Proteus mirabilis ATCC 12453, Acinetobacter baumannii ATCC 19606) bacteria as model microorganisms. For this purpose, microbial suspensions were prepared in sterile saline (0.85% NaCl) with an optical density of 0.5 McFarland standard, yielding a concentration of 150 × 10^6 CFU/mL (CFU, colony-forming units). All of the stock solutions of the tested compounds were dissolved in DMSO. Amoxicillin (Glentham Life Sciences Ltd., Corsham, UK) was used as a positive control.
The MIC values of the tested compounds were determined by serial twofold dilutions of 1–5 in Mueller Hinton Broth (MHB, Biomaxima, Lublin, Poland). The range of final 1–5 concentrations used was from 0.49 up to 1000 μg/mL, and for amoxicillin from 0.12 up to 250 μg/mL in the 96-well microtiter plates (Medlab, Raszyn, Poland), starting with 98 μL MHB and 2 μL bacterial inoculum added to each well. Positive controls consisted of 100 μL MHB in each well with the tested compounds at the same concentration range. The negative controls consisted of 100 μL of MHB only. Each set of tests and controls was established with three replicates. The microtiter plates were then subjected to an incubation period of 24 h at a temperature of 35 ± 2 °C. After incubation, the optical density of the microbial growth was measured at a wavelength of 600 nm using a microplate reader, the Biotek Elx800 (BioTek Instruments, Inc., Winooski, VT, USA). The MIC value was defined as the lowest concentration of the tested compound at which there was no visible growth of the tested microorganisms. The determination of the MIC values was achieved by employing the broth microdilution method, in accordance with the recommendations of the European Committee on Antimicrobial Susceptibility Testing (EUCAST). […] Then, the MHA plates were incubated overnight at 35 ± 2 °C. […] The MIC and MBC values were reported in μg/mL, according to the EUCAST reference.

[2] = tested on: H1HeLa cells; assay: Cytotoxicity, microculture tetrazolium (MTT) test, H1HeLa; type: cell-based; conditions: H1HeLa, 24 h, microscopy
Method: The cytotoxicity of biaryl monophosphines was tested in vitro in normal (VERO) and cancer-derived (H1HeLa) cells after 24 h of incubation using a microculture tetrazolium test. Table 2 presents the CC50 (concentrations decreasing the cellular viability by 50%) values calculated from dose–response cytotoxicity curves (Figure 4).
Cytotoxicity was evaluated using a microculture tetrazolium test as previously described, and details can be found in the Supplementary Materials. The cell lines used in the presented study were acquired from the American Type Culture Collection (ATCC); the one used for cytotoxicity testing included non-cancerous VERO (kidney; ATCC CCL-81) cells and cancer-originating H1HeLa (cervical adenocarcinoma; ATCC CRL-1958) cells. VERO cells were cultured in Dulbecco’s Modified Eagle’s Medium (DMEM; Corning, Tewksbury, MA, USA), while Eagle’s Minimum Essential Medium (MEM; Corning) was used for H1HeLa. Antibiotics (penicillin–streptomycin solution, Corning) and fetal bovine serum (FBS, Corning) were added to cell media. Cells were incubated in a 5% CO2 atmosphere at 37 °C (CO2 incubator, Panasonic Healthcare Co., Tokyo, Japan). Briefly, the monolayers of VERO or H1HeLa cells in 96-well plates (Falcon, Corning) were treated with serial dilutions of selected compounds for 24 h. After this, the medium was removed, the plates were washed with phosphate buffered saline (PBS; Corning), a 10% solution of (3-(4,5-dimethylthiazol-2-yl)-2,5-diphenyltetrazolium bromide (MTT; Sigma-Aldrich, St. Louis, MO, USA) (5 mg/mL) in FBS-free cell media was added, and the incubation continued for the next 4 h. Subsequently, the precipitated formazan crystals were dissolved, and after overnight incubation at 37 °C, the Synergy H1 Multi-Mode Microplate Reader (BioTek Instruments, Inc., Winooski, VT, USA) with Gen5 software (ver. 3.09.07; BioTek Instruments, Inc.) was used for absorbance acquisition (540 and 620 nm). Data was exported to GraphPad Prism (ver. 10) to calculate the CC50 values (50% cytotoxic concentration) from dose–response curves.
Aromaticity Tuning in Biaryl Monophosphines and Their Derivatives […]
Cell line maintenance and in vitro experiments
The cytotoxicity of selected biaryl monophosphines was evaluated in vitro towards normal VERO (ATCC, CCL-81) cells and cancer-derived cell line H1HeLa (cervical adenocarcinoma; ATCC (American Type Culture Collection) CRL-1958) using 3-(4,5-dimethylthiazol-2-yl)-2,5-diphenylte-trazolium bromide (MTT) based protocol.
Media used for in vitro culturing included Dulbecco's Modified Eagle's Medium (DMEM, Corning, Tewksbury, MA, USA) used for VERO cells and Modified Eagle Medium (MEM, Corning) used for H1HeLa. Cell media used in the experiments were supplemented with antibiotics (Penicil-lin-Streptomycin Solution, Corning) and fetal bovine serum (FBS, Corning) – 10% (cell passaging) and 2% (cell maintenance and experiments). Phosphate-buffered saline (PBS) and trypsin were bought from Corning, whereas MTT (3-(4,5-dimethylthiazol-2-yl)-2,5-diphenyltetrazolium bromide) from Sigma (Sigma-Aldrich, St. Louis, MO, USA). SDS was purchased from PanReac Applichem (Darmstadt, Germany). Incubation was carried out in a 5% CO2 atmosphere at 37°C (CO2 incubator, Panasonic Healthcare Co., Tokyo, Japan).
Concentrations of cells for passaging were as follows: VERO – 1.5*10^5 cells/mL, H1HeLa – 2*10^5 cells/mL. Routine observations of cell cultures and experiments were carried out using an in-verted microscope (CKX41, Olympus Corporation, Tokyo, Japan) equipped with a ca mera (Moti-cam 3+, Motic, Hong Kong), and the results were recorded (Motic Images Plus 2.0, Motic).
Stock solutions of biaryl monophosphines were prepared by dissolving the samples in cell culture grade DMSO (PanReac Applichem).
Evaluation of cytotoxicity
Cytotoxicity was tested using an MTT-based protocol. The cells were passaged into 96-well plates (Falcon, TC-treated, Corning) and, after overnight incubation, treated with serial dilutions of […]

[3] = tested on: Gram-positive bacteria; assay: Antibacterial screening, summary over the three Gram-positive reference species; type: cell-based; conditions: range over three Gram-positive reference species
Method: as §1
The MIC values of the tested compounds were determined by serial twofold dilutions of 1–5 in Mueller Hinton Broth (MHB, Biomaxima, Lublin, Poland). The range of final 1–5 concentrations used was from 0.49 up to 1000 μg/mL, and for amoxicillin from 0.12 up to 250 μg/mL in the 96-well microtiter plates (Medlab, Raszyn, Poland), starting with 98 μL MHB and 2 μL bacterial inoculum added to each well. […] After incubation, the optical density of the microbial growth was measured at a wavelength of 600 nm using a microplate reader, the Biotek Elx800 (BioTek Instruments, Inc., Winooski, VT, USA). […]

| MIC [1] | MIC [3] | Compound | influence on morphology of the cellular monolayer ([2]; 12.5 µg/mL) | MBC [3] | MBC ([1]; E. coli ATCC 25922) | influence on morphology of the cellular monolayer ([2]; 1.6 µg/mL) | influence on morphology of the cellular monolayer ([2]; 3.1 µg/mL) | influence on morphology of the cellular monolayer ([2]; 6.3 µg/mL) |
| --- | --- | --- | --- | --- | --- | --- | --- | --- |
| 500 to 1000 µg/mL (≈ 882 to 1760 µM) |  | COc1cc(OC)c(-c2c(P(=O)(C3CCCCC3)C3CCCCC3)c(OC)c3ccccc3c2OC)c(OC)c1 [Compound 1, Dicyclohexyl[1,4-dimethoxy-3-(2,4,6-trimethoxyphenyl)naphthalen-2-yl]phosphane oxide] | monolayer of H1Hela was destroyed |  |  |  |  |  |
| > 1000 µg/mL | 1.95 to 15.6 µg/mL (≈ 3.85 to 30.9 µM) | COc1ccccc1-c1c(P(=O)(C2CCCCC2)C2CCCCC2)c(OC)c2ccccc2c1OC [Compound 2, Dicyclohexyl[1,4-dimethoxy-3-(2-methoxyphenyl)naphthalen-2-yl]phosphane oxide] | monolayer of H1Hela was destroyed | > 1000 µg/mL |  |  |  |  |
| 250 to 500 µg/mL (≈ 452 to 905 µM) |  | COc1cc(OC)c(-c2c(P(=O)(C3CCCCC3)C3CCCCC3)c(O)c3ccccc3c2OC)c(OC)c1 [Compound 3, 2-(Dicyclohexylphosphoryl)-4-methoxy-3-(2,4,6-trimethoxyphenyl)naphthalen-1-ol] | destroyed the cellular monolayer |  | > 1000 µg/mL | the cellular monolayer resembled the control cells | only a fraction of shrunken cells visible | most of the cells showed cytotoxic damage |
